In brackets after ≈: the same amount, converted by molar mass.
Experiments:
[1] = In vitro antibacterial activity against gram-negative organism Pseudomonas aeruginosa 5007; assay type: functional
in vivo [2] = conditions: rat, plasma, po, 5 mg/kg
Streptococcus pyogenes = assay: In vitro antibacterial activity against gram-positive organism Streptococcus pyogenes EES61; assay type: functional; conditions: Streptococcus pyogenes; read-out: MIC
in vivo [3] = conditions: rat, po, 5 mg/kg
Description: Oral bioavailability in rat (dose 5 mg/kg)

Pseudomonas aeruginosa [4] = assay: In vivo efficacy against Pseudomonas aeruginosa 5007 by orally administered.; assay type: functional
[5] = Maximum plasma concentration in rats after an oral dose of 5 mg/kg; conditions: rat
[6] = In vitro antibacterial activity against gram-negative organism Pseudomonas aeruginosa DPHD-2862; assay type: functional
Streptococcus pneumoniae [7] = assay: In vivo efficacy against Strep. administered; assay type: functional
[8] = In vivo efficacy against Pseudomonas aeruginosa 5007 after subcutaneous administration; assay type: functional
Streptococcus pneumoniae [9] = assay: (§1) In vivo efficacy against Strep. administration; assay type: functional
[10] = molecular target: T1, DNA gyrase (Escherichia coli) (UniProt P0AES6+P0AES4); assay: In vitro antibacterial activity against gram-positive organism Streptococcus bovis A-5169; assay type: functional; conditions: Streptococcus equinus
[11] = molecular target: T2, DNA gyrase (Staphylococcus aureus) (UniProt P0A0K8+P20831); assay: In vivo efficacy against Staphylococcus aureus NCTC-10649M after subcutaneous administration; assay type: functional, organism-based
[12] = molecular target: T2, DNA gyrase (Staphylococcus aureus); assay: In vitro antibacterial activity against gram-positive organism Staphylococcus aureus ATCC 6538p; assay type: functional
[13] = molecular target: T1, DNA gyrase (Escherichia coli); assay: In vivo efficacy against Escherichia coli JUHL by subcutaneous administration; assay type: functional, organism-based; conditions: Escherichia coli K-12
Pseudomonas aeruginosa [14] = assay: In vivo efficacy against Pseudomonas aeruginosa 5007 following p.o. administration.
[15] = molecular target: T1, DNA gyrase (Escherichia coli); assay: In vitro antibacterial against gram-negative organism Escherichia coli JUHL; assay type: functional; conditions: Escherichia coli K-12
Streptococcus pneumoniae [16] = assay: as §1; assay type: functional; remark: listed apart in the source
[17] = molecular target: T1, DNA gyrase (Escherichia coli); assay: In vitro antibacterial activity against gram-negative organism […] ATCC 13048; assay type: functional; conditions: Enterobacter aerogenes
[18] = molecular target: T1, DNA gyrase (Escherichia coli); assay: In vitro antibacterial activity against gram-negative organism Prov. stuartii CMX-640; assay type: functional; conditions: Providencia stuartii
[19] = molecular target: T1, DNA gyrase (Escherichia coli); assay: In vivo efficacy against Escherichia coli JUHL after oral administration; assay type: functional, organism-based; conditions: Escherichia coli K-12
[20] = molecular target: T1, DNA gyrase (Escherichia coli); assay: In vitro antibacterial activity against gram-positive organism Enterococcus faecium ATCC 8043; assay type: functional
[21] = molecular target: T2, DNA gyrase (Staphylococcus aureus); assay: (§2) In vivo efficacy against Staphylococcus aureus NCTC-10649M after oral administration; assay type: functional, organism-based
[22] = molecular target: T2, DNA gyrase (Staphylococcus aureus); assay: In vitro antibacterial activity against gram-positive organism Staphylococcus aureus NCTC-10649M; assay type: functional
[23] = molecular target: T1, DNA gyrase (Escherichia coli); assay: In vitro antibacterial activity against gram-negative organism Klebsiella pneumoniae ATCC 8045; assay type: functional
[24] = molecular target: T1, DNA gyrase (Escherichia coli); conditions: Escherichia coli K-12
Description: Concentration which causes 50% of the gyrase (Escherichia coli H560)-mediated maximal DNA cleavage.

[25] = molecular target: T2, DNA gyrase (Staphylococcus aureus); assay: In vitro antibacterial activity against gram-positive organism Staphylococcus aureus 1775; assay type: functional
Staphylococcus aureus = assay: as §2; assay type: functional
in vivo [26] = conditions: rat, plasma, po, 5 mg/kg; remark: listed apart in the source
physchem = conditions: phosphate buffer, pH 7.4
Description: Aqueous solubility in pH 7.4 phosphate buffer (0.05 M) at 37 degree C

Escherichia coli = assay: In vivo efficacy against Escherichia coli JUHL by orally administered.; assay type: functional; conditions: po
Enterococcus faecalis = assay: Inhibitory activity against enterococcus faecalis Van B; assay type: functional
Enterococcus faecium = assay: Inhibitory activity against enterococcus faecium Van A; assay type: functional
[27] = Pseudomonas aeruginosa, read-out: MIC
[28] = Streptococcus pneumoniae, read-out: ED50
[29] = Pseudomonas aeruginosa, sc, read-out: ED50

| MIC [1, 27] | MIC (Streptococcus pyogenes) | bioavailability (in vivo [3]) | Cmax [5] | MIC [6, 27] | MIC [10] | ED50 [11] | MIC [12] | ED50 [13] | ED50 (Pseudomonas aeruginosa [14]) | MIC [15] | MIC [17] | MIC [18] | ED50 [19] | MIC [20] | ED50 [21] | MIC [22] | MIC [23] | MIC [25] | Structure (SMILES) | CC50 [24] | other results |
| --- | --- | --- | --- | --- | --- | --- | --- | --- | --- | --- | --- | --- | --- | --- | --- | --- | --- | --- | --- | --- | --- |
| 0.39 µg/mL (≈ 1.05 µM) | 0.05 µg/mL (≈ 0.135 µM) | 62% | 1130 ng/mL | 6.2 µg/mL (≈ 16.7 µM) | – | – | – | – | – | – | – | – | – | – | – | – | – | – | Cc1c(N2C[C@@H]3CCN[C@@H]3C2)c(F)cn2c(=O)c(C(=O)O)cc(C3CC3)c12 (stereo in doubt; 45o) | – | half-life (in vivo [2]): 4.1 h; ED50 (Pseudomonas aeruginosa [4]; Pseudomonas aeruginosa, po, read-out: ED50): 39.9 mg/kg; ED50 (Streptococcus pneumoniae [7]; [28]): 4.5 mg/kg; ED50 [8]: 6.4 mg/kg; ED50 (Streptococcus pneumoniae [9]; [28]): 7.6 mg/kg |
| 0.39 µg/mL (≈ 1.07 µM) | 0.39 µg/mL (≈ 1.07 µM) | – | – | 6.2 µg/mL (≈ 16.9 µM) | 0.78 µg/mL (≈ 2.13 µM) | 1.6 mg/kg | 0.2 µg/mL (≈ 0.547 µM) | 1 mg/kg | 17 mg/kg | 0.05 µg/mL (≈ 0.137 µM) | 0.1 µg/mL (≈ 0.273 µM) | 3.1 µg/mL (≈ 8.47 µM) | 5.6 mg/kg | 0.39 µg/mL (≈ 1.07 µM) | 5.7 mg/kg | 0.2 µg/mL (≈ 0.547 µM) | 0.05 µg/mL (≈ 0.137 µM) | 6.2 µg/mL (≈ 16.9 µM) | NC1CCN(c2c(F)cn3c(=O)c(C(=O)O)cc(C4CC4)c3c2Cl)C1 (stereo not drawn) | 0.31 µg/mL (≈ 0.847 µM) | ED50 (Streptococcus pneumoniae [16]): 8.5 mg/kg; ED50 [8, 29]: 3.3 mg/kg; ED50 (Streptococcus pneumoniae [9]): 11.1 mg/kg |
| – | – | – | – | – | – | – | – | – | – | – | – | – | – | – | – | – | – | – | Cc1c(N2C[C@@H]3CCN[C@@H]3C2)c(F)cn2c(=O)c(C(=O)O)cc(C3CC3)c12 (stereo in doubt; (S,S)45o) | – | MIC [1]: 0.2 µg/mL (≈ 0.538 µM); ED50 (Pseudomonas aeruginosa [4]): >50 mg/kg; MIC [6]: 3.1 µg/mL (≈ 8.35 µM); ED50 (Streptococcus pneumoniae [7]): 2.3 mg/kg; ED50 [8]: 18 mg/kg; ED50 (Streptococcus pneumoniae [9]): 11.2 mg/kg |
| 0.2 µg/mL (≈ 0.536 µM) | 0.005 µg/mL (≈ 0.0134 µM) | – | – | 6.2 µg/mL (≈ 16.6 µM) | 0.01 µg/mL (≈ 0.0268 µM) | < 0.2 mg/kg | 0.002 µg/mL (≈ 0.00536 µM) | 0.5 mg/kg | 24.4 mg/kg | 0.001 µg/mL (≈ 0.00268 µM) | 0.01 µg/mL (≈ 0.0268 µM) | 0.78 pug ml-1 | 5.7 mg/kg | 0.01 µg/mL (≈ 0.0268 µM) | – | 0.002 µg/mL (≈ 0.00536 µM) | 0.001 µg/mL (≈ 0.00268 µM) | 0.39 µg/mL (≈ 1.04 µM) | Cc1c(N2CC[C@@H]([C@@H](C)N)C2)c(F)cn2c(=O)c(C(=O)O)cc(C3CC3)c12 | 0.4 µg/mL (≈ 1.07 µM) | ED50 (Staphylococcus aureus): 1.1 mg/kg; ED50 [8, 29]: 5.4 mg/kg |
| 0.2 µg/mL (≈ 0.556 µM) | 0.05 µg/mL (≈ 0.139 µM) | 44% | 740 ng/mL | 3.1 µg/mL (≈ 8.63 µM) | 0.05 µg/mL (≈ 0.139 µM) | – | 0.01 µg/mL (≈ 0.0278 µM) | – | – | 0.005 µg/mL (≈ 0.0139 µM) | 0.05 µg/mL (≈ 0.139 µM) | 0.78 µg/mL (≈ 2.17 µM) | – | 0.1 µg/mL (≈ 0.278 µM) | – | 0.01 µg/mL (≈ 0.0278 µM) | 0.01 µg/mL (≈ 0.0278 µM) | 1.56 µg/mL (≈ 4.34 µM) | Cc1c(N2C[C@@H](N)C[C@@H]2C)c(F)cn2c(=O)c(C(=O)O)cc(C3CC3)c12 | 0.2 µg/mL (≈ 0.556 µM) | half-life (in vivo [26]): 1.6 h; solubility (physchem): 70 µg/mL (≈ 195 µM) |
| 0.39 µg/mL (≈ 1.04 µM) | 0.1 µg/mL (≈ 0.268 µM) | – | – | 12.5 µg/mL (≈ 33.5 µM) | 0.39 µg/mL (≈ 1.04 µM) | 4.7 mg/kg | 0.05 µg/mL (≈ 0.134 µM) | 1.9 mg/kg | – | 0.02 µg/mL (≈ 0.0536 µM) | 0.1 µg/mL (≈ 0.268 µM) | 3.1 µg/mL (≈ 8.3 µM) | – | 0.1 µg/mL (≈ 0.268 µM) | 25 mg/kg | 0.05 µg/mL (≈ 0.134 µM) | 0.02 µg/mL (≈ 0.0536 µM) | 0.78 µg/mL (≈ 2.09 µM) | Cc1c(N2CCC(N(C)C)C2)c(F)cn2c(=O)c(C(=O)O)cc(C3CC3)c12 (stereo not drawn) | – | ED50 (Escherichia coli): > 10 mg/kg; ED50 (Streptococcus pneumoniae [16]): > 25 mg/kg; MIC (Enterococcus faecalis): 0.12 µg/mL (≈ 0.321 µM); MIC (Enterococcus faecium): 1 µg/mL (≈ 2.68 µM); ED50 (Streptococcus pneumoniae [9]): 44.1 mg/kg |
| 0.39 µg/mL (≈ 1.05 µM) | 0.1 µg/mL (≈ 0.269 µM) | 41% | 330 ng/mL | 3.1 µg/mL (≈ 8.35 µM) | 0.1 µg/mL (≈ 0.269 µM) | 1.8 mg/kg | 0.05 µg/mL (≈ 0.135 µM) | 1.1 mg/kg | 42.8 mg/kg | 0.001 µg/mL (≈ 0.00269 µM) | 0.05 µg/mL (≈ 0.135 µM) | 1.56 µg/mL (≈ 4.2 µM) | 3.6 mg/kg | 0.1 µg/mL (≈ 0.269 µM) | 3.6 mg/kg | 0.05 µg/mL (≈ 0.135 µM) | 0.02 µg/mL (≈ 0.0538 µM) | 6.2 µg/mL (≈ 16.7 µM) | Cc1c(N2CC[C@@H]3CNC[C@@H]32)c(F)cn2c(=O)c(C(=O)O)cc(C3CC3)c12 | 0.4 µg/mL (≈ 1.08 µM) | half-life (in vivo [2]): 5.7 h; solubility (physchem): 1940 µg/mL (≈ 5220 µM); ED50 (Streptococcus pneumoniae [7]; [28]): 6.4 mg/kg; ED50 [8, 29]: > 8 mg/kg; ED50 (Streptococcus pneumoniae [9]; [28]): 9.5 mg/kg |

From ChEMBL document CHEMBL1129258, “Synthesis and structure-activity relationships of 2-pyridones: a novel series of potent DNA gyrase inhibitors as antibacterial agents” (J Med Chem, 1996)
